Laboratory results published in patent US20190150481A1, “COMPOSITIONS AND METHODS OF IMPROVING DIETARY PHOSPHORUS AND CALCIUM UTILIZATION IN ANIMALS” (Novus International, Inc., priority 2017, published 2019).
Where “and” joins values, the source holds several entries; their conditions need not be identical. Identical values can stand only once.

How the values were obtained:
Type in all cases: in vivo
nursery pigs [1] = assay: Standardized total tract digestibility (STTD) of Ca and P in nursery pigs, fecal grab sampling day 24 to 26, titanium dioxide marker; conditions: for STTD of Ca / STTD of P: ZnO 2000 ppm Zn vs Zn(HMTBA)2 100 ppm Zn, nursery phase 2
Text: (§1) A total of 288 weaning barrows [TR-4×PIC C-22, initial body weight (BW)=5.71±0.71 kg] were allotted to 1 of 8 dietary treatments according to randomized complete block design. Pigs were blocked by initial body weight. The study started from weaning (day 0) to day 42 post-weaning. Three-phase feeding program was used in this study, in which day 0 to 14, day 15 to 28, and day 29 to 42 were considered as nursing phase 1, 2, and 3, respectively. A basal diet for each phase was formulated to meet the energy and nutrient requirement for different stages of pigs according to previously published recommendation,^1 with the exception of P [0.15% reduction of standardized total tract digestible (STTD) P] and Ca (adjusted according to the fixed ratio of Ca/STTD P=2.15). Eight experimental diets were formulated based on basal diet supplemented with phytase (0 or 500 FTU/kg), Zn sources (2000 ppm Zn from ZnO in phase 1 and 2, 100 ppm Zn from ZnO in phase 3; 100 ppm Zn from Zn(HMTBA)2 from phase 1 to 3) and Cu sources (150, 80, 80 ppm Cu from CuSO4 or Cu(HMTBA)2 in phase 1, 2, and 3, respectively) in a 2×2×2 factorial treatment design. Titanium dioxide at 0.4% was included in phase 2 diets to measure Ca and P digestibility.
Fresh fecal samples were collected via grab sampling from each pig per pen at least twice per day from day 24 to 26. Fecal samples collected from the same pen during the 3 days were pooled together, and a subsample was placed inside a large oven set at 65° C. Oven dried fecal samples were stored at room temperature until analysis for dry matter (DM), Ca, P, and titanium (Ti).
The apparent total tract digestibility (ATTD) coefficient for Ca and P in each treatment was calculated using the following formula:
ATTD of Ca, %=[1−(Cafeces/Cadiet)×(Mdiet/Mfeces)]×100 (Equation 1)
ATTD of P, %=[1−(Pfeces/Pdiet)×Mdiet/Mfeces)]×100 (Equation 2) where Cafeces and Cadiet represented Ca concentrations (g/kg) in feces and diet DM, respectively; Pfeces and Pdiet represented P concentrations (g/kg) in feces and diet DM; Mdiet and Mdigesta represent the marker concentrations (g/kg) in diet and feces DM, respectively.
The standard total tract digestibility (STTD) of Ca was calculated according to the following equation:
STTD of Ca, %=[ATTD of Ca+(basal ECaLend/Cadiet)×100] (Equation 3) where Cadiet represented Ca concentrations (g/kg) in diet DM, respectively; basal ECaLend represented basal endogenous loss of Ca which was approximately 330 mg/kg DMI.
The standard total tract digestibility (STTD) of P was calculated according to the following equation:
STTD of P, %=[ATTD of P+(basal EPLend/Pdiet)×100] (Equation 4) where Pdiet represented P concentrations (g/kg) in diet DM, respectively; basal EPLend represented basal endogenous loss of P which was approximately 190 mg/kg DMI.
(§2) SAS 9.4 (SAS Inst. Inc., Gary, N.C.) was used for all data analysis. Pen served as the experimental unit. The LSMEANS statement was be used to calculate the least square means. Tukey-Kramer adjustment was used for multiple comparisons of the least square means. Pooled SEM will be calculated for each measurement. A probability of P 0.05 will be considered as significant and 0.05<P≤0.10 will be declared as a trend. Mineral sources (Zn and Cu), phytase and their interactions were considered as the main effect, while block was considered as the random effect.

nursery pigs [2] = assay: Gain to feed ratio during d 15 to 28 in nursery pigs; conditions: for G:F (d 15 to 28): 80 ppm Cu
Text: as §1, §2

nursery pigs [3] = assay: Bone (third metacarpal) Ca, P and ash concentrations in nursery pigs on day 42; conditions: for Bone Ca (DM basis) / Bone P (DM basis) / Bone ash (DM basis): day 42
Text: as §1
On day 42, 2 pigs from each pen were euthanized to collect the right front legs. The third metacarpal bone from each right front leg was used to determine DM, Ca, P, and ash concentrations.
as §2

[4] = both supplemented at 80 ppm, Cu source main effect

Compound: CSCCC(O)C(=O)[O-].CSCCC(O)C(=O)[O-].[Zn+2] (stereo not drawn) [Zn(HMTBA)2]
- STTD of Ca (nursery pigs [1]; no phytase): 53.30%
- STTD of P (nursery pigs [1]; no phytase): 32.65%
- STTD of Ca (nursery pigs [1]; with phytase 500 FTU/kg): 65.63%
- STTD of P (nursery pigs [1]; with phytase 500 FTU/kg): 46.36%
- Absolute increase of STTD of Ca compared with ZnO (nursery pigs [1]; with phytase supplementation): 6.45%
- Absolute increase of STTD of P compared with ZnO (nursery pigs [1]; with phytase supplementation): 12.68%
- Absolute increase of STTD of Ca compared with ZnO (nursery pigs [1]; without phytase): 4.81%
- Absolute increase of STTD of P compared with ZnO (nursery pigs [1]; without phytase): 29.98%

Compound: CSCCC(O)C(=O)[O-].CSCCC(O)C(=O)[O-].[Cu+2] (stereo not drawn) [Cu(HMTBA)2]
- Difference to CuSO4 in gain to feed ratio (G:F) during day 15 to 28 (nursery pigs [2]; [4]): no significant differences
- G:F (d 15 to 28) (nursery pigs [2]; no phytase): 0.75 g/g
- G:F (d 15 to 28) (nursery pigs [2]; with phytase 500 FTU/kg): 0.84 g/g
- Difference to CuSO4 in bone Ca, P and ash (nursery pigs [3]; [4]): no significant differences
- Bone Ca (DM basis) (nursery pigs [3]; no phytase): 12.55%
- Bone P (DM basis) (nursery pigs [3]; no phytase): 6.44%
- Bone ash (DM basis) (nursery pigs [3]; no phytase): 35.95%
- Bone Ca (DM basis) (nursery pigs [3]; with phytase 500 FTU/kg): 14.89%
- Bone P (DM basis) (nursery pigs [3]; with phytase 500 FTU/kg): 7.81%
- Bone ash (DM basis) (nursery pigs [3]; with phytase 500 FTU/kg): 41.97%

Compound: O=S(=O)([O-])[O-].[Cu+2] [CuSO4, reference compound]
- G:F (d 15 to 28) (nursery pigs [2]; no phytase): 0.76 g/g
- G:F (d 15 to 28) (nursery pigs [2]; with phytase 500 FTU/kg): 0.80 g/g
- Bone Ca (DM basis) (nursery pigs [3]; no phytase): 13.04%
- Bone P (DM basis) (nursery pigs [3]; no phytase): 6.65%
- Bone ash (DM basis) (nursery pigs [3]; no phytase): 36.69%
- Bone Ca (DM basis) (nursery pigs [3]; with phytase 500 FTU/kg): 14.14%
- Bone P (DM basis) (nursery pigs [3]; with phytase 500 FTU/kg): 7.38%
- Bone ash (DM basis) (nursery pigs [3]; with phytase 500 FTU/kg): 40.41%

Compound: [O]=[Zn] [ZnO, reference compound]
- STTD of Ca (nursery pigs [1]; no phytase): 48.48% and 48.49%
- STTD of P (nursery pigs [1]; no phytase): 2.67%
- STTD of Ca (nursery pigs [1]; with phytase 500 FTU/kg): 59.18%
- STTD of P (nursery pigs [1]; with phytase 500 FTU/kg): 33.68%
